Results: patent US10221426B2, “Constitutively active PYR/PYL receptor proteins for improving plant stress tolerance” (The Regents of the University of California, priority 2009, dated 2019)

Tested on: PYR/PYL receptors PYR1, PYL2, PYL3, and/or PYL4
Assay: Yeast two hybrid agonist screens (conventional and halo assays; compound library and plant extracts)
Type: cell-based, Arabidopsis
From the text: We next investigated whether other compounds besides ABA and pyrabactin could act as agonists of PYR/PYL proteins. Yeast two hybrid strains expressing ABA-receptors and type 2 C protein phosphatases in the appropriate vectors can be used to monitor activation of ABA receptors. These yeast strains therefore create a facile screening system for the identification of cell permeant compounds that act as ABA agonists, i.e. compounds that promote binding of PYR/PYL family members to their protein phosphatase targets. […]
To conduct these agonist assays, screening compounds are added to microtiter wells and appropriate yeast growth media are added. The wells are then seeded with PYR/PYL-PP2C strains and agonist activity is monitored after growth of the strains on the chemical-containing medium. […]
Using a combination of the conventional and halo assays as described above, 65,000 screening compounds were tested for activation of PYR1, PYL2, PYL3 or PYL4 expressing yeast two hybrid strains. Hit compounds that activated any of the yeast strains were retested on all 4 yeast strains and activity assessed qualitatively using X-gal staining assays. […]

- activation of PYR/PYL yeast two hybrid strains: naturally occurring ABA agonist
Substance: copaenoic acid
